Calls of active or inactive are those of the source. The calls are words filed in the database; no cut-off is given here.
Legend:
[1] = tested on: Hepatitis C virus; assay: Inhibition of HCV NS3 protein expression infected in human Huh7.5 cells at 5 uM after 6 hrs by Western blot method relative to control; format: functional, Hepacivirus hominis; settings: Huh7.5, 6 h
[2] = tested on: Hepatitis C virus; assay: Inhibition of HCV NS3 protein expression infected in human Huh7.5 cells at 25 uM after 6 hrs by Western blot method relative to control; format: functional, Hepacivirus hominis; settings: Huh7.5, 6 h
[3] = tested on: Hepatitis C virus; assay: Inhibition of HCV NS5A protein expression infected in human Huh7.5 cells at 5 to 25 uM after 6 hrs by Western blot method; format: functional, cell-based; settings: Hepacivirus hominis
[4] = tested on: Hepatitis C virus; assay: Inhibition of HCV NS3 protein expression infected in human Huh7.5 cells at 10 uM after 6 hrs by Western blot method relative to control; format: functional, Hepacivirus hominis; settings: Huh7.5, 6 h
[5] = tested on: LX2; assay: Antifibrotic activity against human LX2 cells assessed as inhibition of spindle shaped cells by measuring round shaped cells at 25 uM after 6 hrs by light microscopic method; format: functional, cell-based
[6] = Cytotoxicity against human Huh7.5 cells infected with HCV assessed as reduction in cell viability at 5 to 25 uM after 6 hrs by CellTiter-Glo luminescent assay; format: cell-based; settings: huh7.5, 6 h
[7] = Cytotoxicity against human LX2 cells assessed as reduction in cell viability at 5 to 25 uM after 6 hrs by CellTiter-Glo luminescent assay; format: cell-based; settings: lx2, 6 h
[8] = tested on: LX2; assay: Antifibrotic activity against human LX2 cells assessed as inhibition of spindle shaped cells by measuring round shaped cells at 10 uM after 6 hrs by light microscopic method; format: functional, cell-based

| Compound | inhibition at 5 µM [1] [%] | inhibition at 25 µM [2] [%] | inhibition [3] | inhibition at 10 µM [4] [%] | inhibition [5] | Activity [6] | Activity [7] | inhibition [8] |
| --- | --- | --- | --- | --- | --- | --- | --- | --- |
| CCN(CC)c1ccc2c(c1)Oc1nc(N)c(C#N)c(N)c1C2Sc1ccc(SC)cc1 (stereo unspecified) | 29 | 45 | inactive | 35 | Active | Non-Toxic |  |  |
| CCN(CC)c1ccc2c(c1)Oc1nc(N)c(C#N)c(N)c1C2Sc1ccc(C)cc1 (stereo unspecified) |  |  | inactive |  |  | Non-Toxic |  |  |
| CCc1ccc(SC2c3ccc(N(CC)CC)cc3Oc3nc(N)c(C#N)c(N)c32)cc1 (stereo unspecified) | 47 | 19 | inactive | 0 | Active | Non-Toxic | Non-Toxic |  |
| CCN(CC)c1ccc2c(c1)Oc1nc(N)c(C#N)c(N)c1C2Sc1ccc(Cl)cc1 (stereo unspecified) | 42 | 47 | inactive | 34 |  | Non-Toxic | Toxic |  |
| CCN(CC)c1ccc2c(c1)Oc1nc(N)c(C#N)c(N)c1C2Sc1ccc(Br)cc1 (stereo unspecified) | 59 | 32 | inactive | 49 |  | Non-Toxic | Non-Toxic | Active |
| CCN(CC)c1ccc2c(c1)Oc1nc(N)c(C#N)c(N)c1C2Sc1ccc(OC)cc1 (stereo unspecified) | 47 | 28 | inactive | 27 |  | Non-Toxic | Toxic |  |
| CCN(CC)c1ccc2c(c1)Oc1nc(N)c(C#N)c(N)c1C2Sc1ccc(F)cc1 (stereo unspecified) | 33 | 0 | inactive | 3 |  | Non-Toxic | Non-Toxic | Active |
